# Laboratory results published in patent publication US9604933B2, “Pyrazolochalcones as potential anticancer agents” (COUNCIL OF SCIENTIFIC AND INDUSTRIAL RESEARCH, priority 2013, dated 2017).
# Read-outs that look alike come from different tables or passages of the source.
# Legend:
# [1] = test system: TK-10; assay: NCI SRB cytotoxicity, renal TK-10; assay type: cell-based; details: Homo sapiens, 48 h exposure
# Procedure: (§1) The pyrazolochalcones (7e, 8e, 10e, 11e, 12e, 13e and 8f) have been tested against fifty nine human tumor cell lines derived from nine cancer types (leukemia, non-small cell lung cancer, colon cancer, CNS cancer, melanoma, ovarian cancer, renal cancer, prostate cancer and breast cancer) as per the NCI protocol. For each compound, dose response curves for individual cell lines have been measured at a minimum of five concentrations at 10 fold dilutions. A protocol of 48 h continuous drug exposure has been used, and a sulforhodamine B (SRB) protein assay has been used to estimate cell viability or growth. The concentration for 50% cell growth inhibition (GI50), 50% cell death (LC50, 50% growth) and total cell growth inhibition (TGI, 0% growth) values were tabulated (Table-1). DMSO was used as control to calculate the values of GI50, LC50 and TGI. The compounds 7e, 8e, 10e, 11e, 12e, 13e and 8f has been evaluated for their in vitro cytotoxicity in […] cell lines from nine human cancer types of leukemia (K-562, SR), non-small cell lung (Hop-62, NCI-H226, NCI-H522), colon (HCT-116, HCT-15, HCC-2998), CNS (SF-539), melanoma (SK-MEL-5, UACC-62, M14), ovarian (IGROV1), renal (A498), prostate (PC3) and breast (BT-549, MDA-MB-435, HS578T) origin. The results are expressed as percent of cell growth determined relative to that of untreated control cells (Table 2).
# [2] = test system: UO-31; assay: NCI SRB cytotoxicity, renal UO-31; assay type: cell-based; details: Homo sapiens, 48 h exposure
# Procedure: as §1
# [3] = test system: RPMI-8226; assay: NCI SRB cytotoxicity, leukemia RPMI-8226; assay type: cell-based; details: Homo sapiens, 48 h exposure
# Procedure: as §1
# [4] = test system: MDA-MB-435; assay: NCI SRB cytotoxicity, breast panel MDA-MB-435; assay type: cell-based; details: Homo sapiens, 48 h exposure
# Procedure: as §1
# [5] = test system: Colon; assay: NCI SRB cytotoxicity, colon panel average; assay type: cell-based, human; details: average of cell lines
# Procedure: as §1
# (§2) Each cancer type represents the average of six to eight different cancer cell lines.
# [6] = test system: NCI/ADR-RES; assay: NCI SRB cytotoxicity, ovarian NCI/ADR-RES; assay type: cell-based; details: Homo sapiens, 48 h exposure
# Procedure: as §1
# [7] = test system: Ovarian; assay: NCI SRB cytotoxicity, ovarian panel average; assay type: cell-based, human; details: average of cell lines
# Procedure: as §1, §2
# [8] = test system: NCIH322M; assay: NCI SRB cytotoxicity, non-small cell lung NCIH322M; assay type: cell-based; details: Homo sapiens, NCI-H322M, 48 h exposure
# Procedure: as §1
# [9] = test system: Prostate; assay: NCI SRB cytotoxicity, prostate panel average; assay type: cell-based, human; details: average of cell lines
# Procedure: as §1, §2
# [10] = test system: NCI-H226; assay: NCI SRB cytotoxicity, non-small cell lung NCI-H226; assay type: cell-based; details: Homo sapiens, 48 h exposure
# Procedure: as §1
# [11] = test system: KM12; assay: NCI SRB cytotoxicity, colon KM12; assay type: cell-based; details: Homo sapiens, 48 h exposure
# Procedure: as §1
# [12] = test system: SW-620; assay: NCI SRB cytotoxicity, colon SW-620; assay type: cell-based; details: Homo sapiens, 48 h exposure
# Procedure: as §1
# [13] = test system: Renal; assay: NCI SRB cytotoxicity, renal panel average; assay type: cell-based, human; details: average of cell lines
# Procedure: as §1, §2
# [14] = test system: CNS; assay: NCI SRB cytotoxicity, CNS panel average; assay type: cell-based, human; details: average of cell lines
# Procedure: as §1, §2
# [15] = test system: A498; assay: NCI SRB cytotoxicity, renal A498; assay type: cell-based; details: Homo sapiens, 48 h exposure
# Procedure: as §1
# [16] = test system: Breast; assay: NCI SRB cytotoxicity, breast panel average; assay type: cell-based, human; details: average of cell lines
# Procedure: as §1, §2
# [17] = test system: T-47D; assay: NCI SRB cytotoxicity, breast T-47D; assay type: cell-based; details: Homo sapiens, T47D, 48 h exposure
# Procedure: as §1
# [18] = test system: MDA-MB-231/ATCC; assay: NCI SRB cytotoxicity, breast MDA-MB-231/ATCC; assay type: cell-based; details: Homo sapiens, 48 h exposure
# Procedure: as §1
# [19] = test system: MCF7; assay: NCI SRB cytotoxicity, breast MCF7; assay type: cell-based; details: Homo sapiens, 48 h exposure
# Procedure: as §1
# [20] = test system: 786-0; assay: NCI SRB cytotoxicity, renal 786-0; assay type: cell-based; details: Homo sapiens, 48 h exposure
# Procedure: as §1
# [21] = test system: MOLT-4; assay: NCI SRB cytotoxicity, leukemia MOLT-4; assay type: cell-based; details: Homo sapiens, 48 h exposure
# Procedure: as §1
# [22] = test system: BT-549; assay: NCI SRB cytotoxicity, breast BT-549; assay type: cell-based; details: Homo sapiens, 48 h exposure
# Procedure: as §1
# [23] = test system: ACHN; assay: NCI SRB cytotoxicity, renal ACHN; assay type: cell-based; details: Homo sapiens, 48 h exposure
# Procedure: as §1
# [24] = test system: NCI-H23; assay: NCI SRB cytotoxicity, non-small cell lung NCI-H23; assay type: cell-based; details: Homo sapiens, 48 h exposure
# Procedure: as §1
# [25] = test system: HL-60(TB); assay: NCI SRB cytotoxicity, leukemia HL-60(TB); assay type: cell-based; details: Homo sapiens, 48 h exposure
# Procedure: as §1
# [26] = test system: Leukemia; assay: NCI SRB cytotoxicity, leukemia panel average; assay type: cell-based, human; details: average of cell lines
# Procedure: as §1, §2
# [27] = test system: SK-MEL-5; assay: NCI SRB cytotoxicity, melanoma SK-MEL-5; assay type: cell-based; details: Homo sapiens, 48 h exposure
# Procedure: as §1
# [28] = test system: A549/ATCC; assay: NCI SRB cytotoxicity, non-small cell lung A549/ATCC; assay type: cell-based; details: Homo sapiens, 48 h exposure
# Procedure: as §1
# [29] = test system: RXF 393; assay: NCI SRB cytotoxicity, renal RXF 393; assay type: cell-based; details: Homo sapiens, 48 h exposure
# Procedure: as §1
# [30] = test system: OVCAR-5; assay: NCI SRB cytotoxicity, ovarian OVCAR-5; assay type: cell-based; details: Homo sapiens, 48 h exposure
# Procedure: as §1
# [31] = test system: HOP-62; assay: NCI SRB cytotoxicity, non-small cell lung HOP-62; assay type: cell-based; details: Homo sapiens, 48 h exposure
# Procedure: as §1
# [32] = test system: IGROV1; assay: NCI SRB cytotoxicity, ovarian IGROV1; assay type: cell-based; details: Homo sapiens, IGROV-1, 48 h exposure
# Procedure: as §1
# [33] = test system: human tumor cell lines; assay: NCI SRB cytotoxicity, all fifty nine human tumor cell lines; assay type: cell-based; parameters: Log10 TGI mean graph midpoint (MG_MID): unit not given here; details: for GI50: Homo sapiens
# Procedure: as §1
# The mean graph midpoint values of Log10 TGI and Log10 LC50 as well as Log10 GI50 for compounds 7e, 8e, 10e, 11e, 12e, 13e and 8f is listed in Table-3. […] The mean graph mid points of Log10 TGI and Log10, LC50 have shown similar pattern to the log10 GI50 mean graph mid points.
# [34] = test system: HCT-15; assay: NCI SRB cytotoxicity, colon HCT-15; assay type: cell-based; details: Homo sapiens, 48 h exposure
# Procedure: as §1
# [35] = Homo sapiens, read-out: Log10 LC50 (concentration in mol/L causing 50% cell death) (converted)
smiles,measurement,setting,value
"COc1cc(-c2cc(/C=C/C(=O)c3ccc(F)c(F)c3)[nH]n2)cc(OC)c1OC [13e, (E)-1-(3,4-difluorophenyl)-3-(3-(3,4,5-trimethoxyphenyl)-1H-pyrazol-5-yl)prop-2-en-1-one]",GI50,[1],2.29 µM
same,GI50,[2],2.63 µM
same,GI50,[3],1.76 µM
same,GI50,[4],2.22 µM
same,LC50,[5]; [35],58.9 µM
same,Log10 GI50 (concentration in mol/L causing 50% growth inhibition),[5],−5.52 mol/L
same,Log10 TGI (concentration in mol/L causing total growth inhibition),[5],−4.70 mol/L
same,GI50,[6],3.46 µM
same,CC50,[7]; [35],89.1 µM
same,Log10 GI50 (concentration in mol/L causing 50% growth inhibition),[7],−5.5 mol/L
same,Log10 TGI (concentration in mol/L causing total growth inhibition (0% growth)),[7],−4.45 mol/L
same,GI50,[8],3.37 µM
same,CC50,[9]; [35],0.0001 mol/L
same,Log10 GI50 (concentration in mol/L causing 50% growth inhibition),[9],−5.78 mol/L
same,Log10 TGI (concentration in mol/L causing total growth inhibition (0% growth)),[9],−5.24 mol/L
same,GI50,[10],3.72 µM
same,GI50,[11],3.06 µM
same,GI50,[12],3.42 µM
same,CC50,[13]; [35],93.3 µM
same,Log10 GI50 (concentration in mol/L causing 50% growth inhibition),[13],−5.56 mol/L
same,Log10 TGI (concentration in mol/L causing total growth inhibition (0% growth)),[13],−4.71 mol/L
same,LC50,[14]; [35],91.2 µM
same,Log10 GI50 (concentration in mol/L causing 50% growth inhibition),[14],−5.47 mol/L
same,Log10 TGI (concentration in mol/L causing total growth inhibition (0% growth)),[14],−4.38 mol/L
same,GI50,[15],2.11 µM
same,CC50,[16]; [35],97.7 µM
same,Log10 GI50 (concentration in mol/L causing 50% growth inhibition),[16],−5.56 mol/L
same,Log10 TGI (concentration in mol/L causing total growth inhibition (0% growth)),[16],−4.83 mol/L
same,GI50,[17],2.45 µM
same,GI50,[18],1.64 µM
same,GI50,[19],3.2 µM
same,GI50,[20],3.35 µM
same,GI50,[21],2.72 µM
same,GI50,[22],4.11 µM
same,GI50,[23],3.26 µM
same,GI50,[24],2.6 µM
same,GI50,[25],2.48 µM
same,CC50,[26]; [35],0.0001 mol/L
same,Log10 GI50 (concentration in mol/L causing 50% growth inhibition),[26],−5.57 mol/L
same,Log10 TGI (concentration in mol/L causing total growth inhibition (0% growth)),[26],−4.76 mol/L
same,GI50,[27],2.27 µM
same,GI50,[28],2.43 µM
same,GI50,[29],2.05 µM
same,GI50,[30],4.48 µM
same,GI50,[31],4.39 µM
same,GI50,[32],3.62 µM
same,GI50,"[33]; across fifty nine cell lines in nine cell panels, read-out: GI50 value range",0.18 to 29.2 µM
same,GI50,"[33]; against human tumor cell lines, read-out: Log10 GI50 mean graph midpoint (MG_MID) (converted)",2.82 µM
same,cytotoxicity,"[33]; against cancer cell lines, in words",significant cytotoxicity
same,Log10 TGI mean graph midpoint (MG_MID),[33]; against human tumor cell lines,−4.74
same,LC50,"[33]; against human tumor cell lines, read-out: Log10 LC50 mean graph midpoint (MG_MID) (converted)",81.3 µM
same,GI50,[34],3.01 µM
